Laboratory results from US9463192B2, “Trk-inhibiting compound” (ONO PHARMACEUTICAL CO., LTD., priority 2013, dated 2016).

Columns and labels:
[1] = tested on: NGF-induced vascular hyper permeability; experiment: Inhibition of rat NGF-induced vascular hyper permeability; type: in vivo; conditions: po, 1 mg/kg orally, 14 h after administration, read-out: Inhibition rate of vascular hyper permeability (%) (time after administration (h))
Experimental: TrkA-inhibiting activity of the present compound was evaluted in vivo. The present compound dissolved in a medium was orally administered (adminstered volume: 5 mL/kg) to male CD(SD)IGS rats (7- to 9-week old, Charles River laboratories Japan, Inc.) shaved on the back. A medium was orally administered (adminstered volume: 5 mL/kg) to the control and normal groups. After 6, 12 or 14 hours of administration, 3 μg/mL of a NGF (Mouse 2.5s, Natural, Invitrogen) solution prepared in 0.1% BSA (Sigma-Aldrich)-containing saline was intracutaneously administered (dose; 50 μL/site) at 3 sites on the back of animals under halothane anesthesia. For the normal group, 0.1% BSA-containing saline was intracutaneously administered (dose; […]) at 3 sites on the back. Immediately after intracutaneous administration, 1% Evans Blue (Tokyo Chemical Industriy Co., Ltd.) was administered intravenously from tail (adminstered volume: 3 mL/kg). After 10 minutes of administration, the animals were sacrificed by bleeding due to incision of the abdominal aorta. The sites of intracutaneous administration on the back (3 sites) were excised and the skin samples were respectively transferred to the wells in a 48-well plate (Asahi Glass Co., Ltd.). Formamide (0.8 mL/well) was added to the plate and the plate was sealed and incubated overnight at 60° C. The formamide extraction solution (200 μL) was transferred to a 96-well plate and the absorbance (wavelength: 620 nm) of Evans Blue extracted in formamide was measured on an absorbance microplate reader (SpectraMAX 190, Molecular Devices Japan, K.K.). Standard samples of Evans Blue dissolved in formamide (0, 0.78, 1.56, 3.13, 6.25, 12.5, 25 and 50 µg/mL) were measured at the same time for the absorance (wavelength: 620 nm) to generate a calibration curve. Based on the calibration curve and the absorbances of samples, the concentrations of Evans Blue in the sample was calculated. The concentrations of Evans Blue for three skin samples collected from one aminal were averaged to obtain the vale for the animal. The rate of inhibition for rat NGF-induced vascular hyper permeability of the present compound was calculated according to the following Equation: Inhibition rate (%)={1−(AX−AN)/(AC−AN)}×100 [Eq. 3]
wherein AX: the concentration of Evans Blue of the test compound (an average value of 3 samples from one animal);
AN: the concentration of Evans Blue of the normal group (an average value of 3 samples from one animal);
AC: the concentration of Evans Blue of the control group (an average value of 3 samples from one animal).

[2] = molecular target: human TrkA (Homo sapiens (Human), UniProt P04629); experiment: Measurement of TrkA kinase-inhibiting activity using human TrkA-expressing cells; type: cell-based; conditions: CHO-K1 cells expressing human TrkA and NFAT-bla; NGF 50 ng/ml; TR-FRET reporter
Experimental: TrkA kinase-inhibiting activity in cell systems was measured using CHO-K1 cells exressing human TrkA and NFAT-bla (CellSenser™ TrkA-NFAT-bla CHO-K1 cells, Invitrogen).
On the day before the assay, CellSenser™ TrkA-NFAT-bla CHO-K1 cells were suspended in an assay medium (Opti-MEM1 Reduced Serum Medium (Invitrogen) containing 0.5% dialysed fetal bovine serum (Invitrogen), 0.1 mM nonessential amino acids (Invitrogen), 1 mM sodium pyruvate (Invitrogen) and antibiotics (100 U/mL penicillin and 100 µg/mL streptomycin (Invitrogen))) and plated at a density of 2.4×10^4 cells/40 μL/well in a 96-well clear bottom plate (Corning, Catalogue No.: 3882). In some wells were added only the assay medium at 40 μL/well (Cell-free). On the day of the assay, 10 mM of the present compound (DMSO solution) was distributed in a 96-well plate (Costar, Catalogue No.: 3363) and serially diluted with DMSO with the geometrical ratio of 3. The serial dilutions were diluted with the assay medium to 100-fold to prepare a solution of the present compound with a 10-fold concentration (DMSO concentration: 1%). To the plate where cells were plated was added the present compound at 5 µL/well and the plate was incubated in a CO2 incubator with 5% CO2, 95% Air at 37° C. for 30 minutes. For a control and a blank, the assay medium containing 1% DMSO was added at 5 µL/well in place of the solution of the present compound. Subsequently the assay medium containing NGF (Mouse 2.5s, Natural, Invitrogen) was added to the plate at 5 µL/well (final concentration of NGF: 50 ng/ml) and the plate was incubated in a CO2 incubator with 5% CO2, 95% Air at 37° C. for 5 hours. For the blank group, the assay medium was added in place of NGF at 5 µL/well. A reporter assay detection reagent ([…]) was added to the plate which was then incubated in the dark at room temperature for 120 minutes. The reporter assay detection reagent was prepared from LiveBLAzer™-FRET B/G Loading Kit (Invitrogen). On the Analyst GT (Molecular Devices Japan, K.K.) the wells were irradiated with excitation light at 405 nm and the fluorescence intensities at 460 nm and 530 nm were measured. The time resolved fluorescence resonance energy transfer (TR-FRET) ratio of each well was calculated according to the following Equation 1: TR-FRET ratio=(A460x−A460F)/(A530x−A530F) [Eq. 1]
A460x: the fluorescence intensity at 460 nm of the present compound, control or blank;
A460F: the fluorescence intensity at 460 nm of the Cell-free;
A530x: the fluorescence intensity at 530 nm of the present compound, control or blank; and
A530x: the fluorescence intensity at 530 nm of the Cell-free.
The TR-FRET inhibition rate (%) of the present compound was calculated according to the following Equation 2: Inhibition rate (%)={1−(AX−AB)/(AC−AB)}×100 [Eq. 2]
wherein AX: the TR-FRET ratio when the present compound is added;
AB: the TR-FRET of the blank; and
AC: the TR-FRET of the control.
The IC50 value by the present compound was calculated from the inhibition curve based on the inhibition rate of the present compound at respective concentrations.

[3] = tested on: sodium monoiodoacetate-induced model rats; experiment: Analgesic effect on sodium monoiodoacetate-induced model rats; type: in vivo, rat

Sequence of human TrkA (P04629 33-796): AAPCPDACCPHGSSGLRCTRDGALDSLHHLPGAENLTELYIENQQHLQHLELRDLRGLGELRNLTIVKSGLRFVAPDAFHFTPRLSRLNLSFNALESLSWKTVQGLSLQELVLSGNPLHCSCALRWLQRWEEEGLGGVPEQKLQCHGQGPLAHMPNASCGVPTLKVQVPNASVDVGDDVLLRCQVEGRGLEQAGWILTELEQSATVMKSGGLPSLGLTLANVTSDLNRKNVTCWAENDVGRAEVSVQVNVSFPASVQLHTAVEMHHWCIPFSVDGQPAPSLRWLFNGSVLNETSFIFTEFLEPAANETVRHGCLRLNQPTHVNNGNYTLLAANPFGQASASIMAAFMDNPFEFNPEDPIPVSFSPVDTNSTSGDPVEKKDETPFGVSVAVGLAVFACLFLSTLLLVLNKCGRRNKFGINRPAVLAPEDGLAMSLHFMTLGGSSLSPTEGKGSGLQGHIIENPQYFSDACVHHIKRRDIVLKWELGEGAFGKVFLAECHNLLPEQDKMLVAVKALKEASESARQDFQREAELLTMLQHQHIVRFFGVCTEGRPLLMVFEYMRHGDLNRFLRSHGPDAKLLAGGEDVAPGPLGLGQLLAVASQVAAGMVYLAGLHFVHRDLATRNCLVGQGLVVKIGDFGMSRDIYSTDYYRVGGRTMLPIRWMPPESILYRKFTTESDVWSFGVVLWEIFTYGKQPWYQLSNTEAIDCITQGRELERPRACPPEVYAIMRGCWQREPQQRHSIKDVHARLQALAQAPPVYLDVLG

CN(C)c1ccn2ncc(-c3ccc(Oc4ncc(NC(=O)Nc5cc(C(F)(F)F)ccc5-c5ccnn5C)cn4)cc3)c2n1 [Example 21-51, 1-(2-{4-[5-(dimethylamino)pyrazolo[1,5-a]pyrimidin-3-yl]phenoxy}-5-pyrimidinyl)-3-[2-(1-methyl-1H-pyrazol-5-yl)-5-(trifluoromethyl)phenyl]urea]
inhibition in vivo at 1 mg/kg [1]: 95% | IC50 [2]: 0.001 µM

Cc1ccn2ncc(-c3ccc(Oc4ncc(NC(=O)Nc5cc(C(F)(F)F)ccc5-c5cccnc5)cn4)cc3)c2n1 [Example 21-65, 1-{2-[4-(5-methylpyrazolo[1,5-a]pyrimidin-3-yl)phenoxy]-5-pyrimidinyl}-3-[2-(3-pyridinyl)-5-(trifluoromethyl)phenyl]urea]
inhibition in vivo at 1 mg/kg [1]: 92% | IC50 [2]: 0.0007 µM

CCNc1ccn2ncc(-c3ccc(Oc4ncc(NC(=O)Nc5cc(C(F)(F)F)ccc5-c5cccc(C)c5)cn4)cc3)c2n1 [Example 21-67, 1-(2-{4-[5-(ethylamino)pyrazolo[1,5-a]pyrimidin-3-yl]phenoxy}-5-pyrimidinyl)-3-[3′-methyl-4-(trifluoromethyl)-2-biphenylyl]urea]
inhibition in vivo at 1 mg/kg [1]: 90% | IC50 [2]: 0.004 µM

CN(C)c1ccn2ncc(-c3ccc(Oc4ncc(NC(=O)Nc5cc(C(F)(F)F)ccc5-c5ccccc5)cn4)cc3)c2n1 [Example 21-70, 1-(2-{4-[5-(dimethylamino)pyrazolo[1,5-a]pyrimidin-3-yl]phenoxy}-5-pyrimidinyl)-3-[4-(trifluoromethyl)-2-biphenylyl]urea]
inhibition in vivo at 1 mg/kg [1]: 100% | IC50 [2]: 0.002 µM

Cc1cccc(-c2ccc(C(F)(F)F)cc2NC(=O)Nc2cnc(Oc3ccc(-c4cnn5ccc(N(C)C)nc45)cc3)nc2)c1 [Example 21-73, 1-(2-{4-[5-(dimethylamino)pyrazolo[1,5-a]pyrimidin-3-yl]phenoxy}-5-pyrimidinyl)-3-[3′-methyl-4-(trifluoromethyl)-2-biphenylyl]urea]
inhibition in vivo at 1 mg/kg [1]: 92% | IC50 [2]: 0.003 µM

Cc1ccccc1-c1ccc(C(F)(F)F)cc1NC(=O)Nc1cnc(Oc2ccc(-c3cnn4ccc(N(C)C)nc34)cc2)nc1 [Example 21-75, 1-(2-{4-[5-(dimethylamino)pyrazolo[1,5-a]pyrimidin-3-yl]phenoxy}-5-pyrimidinyl)-3-[2′-methyl-4-(trifluoromethyl)-2-biphenylyl]urea]
inhibition in vivo at 1 mg/kg [1]: 100% | IC50 [2]: 0.004 µM

COc1ccc2ncc(-c3ccc(Oc4ncc(NC(=O)Nc5cc(C(F)(F)F)ccc5-c5cccnc5)cn4)cc3)n2n1 [Example 22-8, 1-(2-(4-(6-methoxyimidazo[1,2-b]pyridazin-3-yl)phenoxy)pyrimidin-5-yl)-3-(2-(pyridin-3-yl)-5-(trifluoromethyl)phenyl)urea]
inhibition in vivo at 1 mg/kg [1]: 100% | IC50 [2]: 0.001 µM

COc1ccc2ncc(-c3ccc(Oc4ncc(NC(=O)Nc5cc(C(F)(F)F)ccc5-n5cccn5)cn4)cc3)n2n1 [Example 22-9, 1-(2-(1H-pyrazol-1-yl)-5-(trifluoromethyl)phenyl)-3-(2-(4-(6-methoxyimidazo[1,2-b]pyridazin-3-yl)phenoxy)pyrimidin-5-yl)urea]
inhibition in vivo at 1 mg/kg [1]: 100% | IC50 [2]: 0.001 µM

CCOc1ccc2ncc(-c3ccc(Oc4ncc(NC(=O)Nc5cc(C(F)(F)F)ccc5-c5cccnc5)cn4)cc3)n2n1 [Example 22-34, 1-{2-[4-(6-ethoxyimidazo[1,2-b]pyridazin-3-yl)phenoxy]-5-pyrimidinyl}-3-[2-(3-pyridinyl)-5-(trifluoromethyl)phenyl]urea]
inhibition in vivo at 1 mg/kg [1]: 91% | IC50 [2]: 0.001 µM

CN1CC[C@]23c4c5ccc(O)c4O[C@H]2[C@@H](O)C=C[C@H]3[C@H]1C5 [Morphine]
inhibition in vivo at 3 mg/kg ([3]; Rattus norvegicus, sc, 1 h, read-out: Percent improvement (%)): 54%

COc1cccc(C2(O)CCCCC2CN(C)C)c1 (centres unmarked) [Tramadol]
Percent improvement (%) ([3]; MIA-induced model rats, day 24, tramadol 10 mg/kg subcutaneously 1 hour before measurement): 43%
